The values that follow come from PubChem BioAssay (NCI).

Among the test systems are A549 NSCLC; MALME-3M melanoma; UACC-62 melanoma; MOLT-4 leukemia; NCI-H522 lung; SNB-75 CNS; SF-539 CNS; HCC-2998 colon; HL-60(TB) leukemia; K-562 leukemia.
What all share (test): NCI-60 cell line screen, 48 h

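Following 48 hours of exposure in 96-well plates, responses at five concentrations were used to interpolate endpoints linearly. Definition used: TGI = concentration required for complete inhibition of growth.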

Consider `CSc1nc(Br)nc2c1ncn2C1CC(Oc2ccc(C)cc2)C(COc2ccc(C)cc2)O1` (stereo not given), for which the TGI in the assay on A549 NSCLC is > 100 µM; with MALME-3M melanoma it was > 100 µM; in the assay with UACC-62 melanoma, > 100 µM; in the assay on MOLT-4 leukemia, > 100 µM; with NCI-H522 lung, > 100 µM; in the assay with SNB-75 CNS, 94.6 µM. The TGI in the assay on SF-539 CNS, with HCC-2998 colon and with HL-60(TB) leukemia was > 100 µM in each case.

`COC(=O)C(Cc1ccccc1)NC(=O)CCCNC(=O)OCc1ccccc1` (stereo not given): the TGI was > 100 µM with K-562 leukemia; > 100 µM in the assay with A549 NSCLC; 82.7 µM in the assay with MALME-3M melanoma; > 100 µM in the assay on UACC-62 melanoma; > 100 µM in the assay with MOLT-4 leukemia; > 100 µM in the assay with NCI-H522 lung. In addition, the TGI in the assay on SNB-75 CNS, in the assay on HCC-2998 colon and in the assay with HL-60(TB) leukemia was > 100 µM in each case.

On to `CCC1(O)CN(CCOC)[C@H]2C[C@@H]1C(=O)c1[nH]c3ccccc3c12` (stereo not given in full), for which the TGI in the assay with K-562 leukemia, with A549 NSCLC, in the assay on MALME-3M melanoma, in the assay on MOLT-4 leukemia, in the assay on NCI-H522 lung and in the assay with SNB-75 CNS was > 100 µM each time. For the same compound, the TGI in the assay on SF-539 CNS, in the assay on HCC-2998 colon and with HL-60(TB) leukemia was > 100 µM in each case.

For `COc1cc(C2S/C(=C/c3ccccc3)C(=O)N2c2ccc(Cl)cc2)cc(OC)c1OC` (stereo not given), the TGI is > 100 µM in the assay with K-562 leukemia; > 100 µM in the assay on A549 NSCLC; 87.2 µM with MALME-3M melanoma; > 100 µM in the assay on UACC-62 melanoma; > 81.5 µM with MOLT-4 leukemia; 21.2 µM in the assay with NCI-H522 lung. The results for the TGI in the assay with SNB-75 CNS, in the assay with HCC-2998 colon and in the assay on HL-60(TB) leukemia were > 79.9 µM, > 100 µM and 85 µM, respectively.

On to `CCOP(=O)(OCC)C(F)(F)CC1CCCCC1`, for which the TGI in the assay with K-562 leukemia, with A549 NSCLC, in the assay with MALME-3M melanoma, in the assay with UACC-62 melanoma, with MOLT-4 leukemia and with SNB-75 CNS was > 10 µM throughout. Also, the TGI in the assay with SF-539 CNS, in the assay on HCC-2998 colon and in the assay on HL-60(TB) leukemia was > 10 µM in each case.

On to `C=CCOn1c(C=C)nc2c(C)cccc21`, for which the TGI with K-562 leukemia amounted to 20.6 µM; in the assay with A549 NSCLC it was 14.4 µM; in the assay on MALME-3M melanoma, 28 µM; with UACC-62 melanoma, 6.93 µM; with MOLT-4 leukemia it was 17 µM; in the assay with NCI-H522 lung, 4.87 µM. For the same compound, the TGI with SNB-75 CNS turned out to be 14.5 µM; in the assay on HCC-2998 colon, 17.8 µM; in the assay on HL-60(TB) leukemia it was 5.1 µM.

Turning to `c1csc(-c2ccc(-c3ccc(-c4cccs4)s3)s2)c1`, the TGI with A549 NSCLC, in the assay with MALME-3M melanoma, with UACC-62 melanoma, with MOLT-4 leukemia, in the assay with NCI-H522 lung and with SNB-75 CNS was > 100 µM in each case. Moreover, the TGI with SF-539 CNS, with HCC-2998 colon and in the assay on HL-60(TB) leukemia was > 100 µM in each case.

Take `CC(=O)c1nccc2c1c(C)nc1ccccc12`: the TGI in the assay on K-562 leukemia, in the assay on A549 NSCLC, in the assay with MALME-3M melanoma, in the assay with UACC-62 melanoma, in the assay on MOLT-4 leukemia and with NCI-H522 lung was > 100 µM throughout. Further, the TGI in the assay with SNB-75 CNS, with SF-539 CNS and in the assay on HL-60(TB) leukemia was > 100 µM each time.

For `O=C(O)c1ccc(Nc2cnc3ccc(C(F)(F)F)cc3n2)cc1`, the TGI with K-562 leukemia is 51.4 µM; in the assay on A549 NSCLC it was 30.8 µM; in the assay with MALME-3M melanoma, > 100 µM; with UACC-62 melanoma it was 29.2 µM; with MOLT-4 leukemia, 44.5 µM; in the assay on SNB-75 CNS, 37.2 µM. In addition, the TGI was 58.2 µM in the assay on SF-539 CNS, 19.6 µM in the assay with HCC-2998 colon and 20.7 µM in the assay with HL-60(TB) leukemia.

As for `CC1=CC(c2ccccc2)n2c(nc3cc4ccccc4cc32)N1` (stereo not given), the TGI with K-562 leukemia, with A549 NSCLC, in the assay with MALME-3M melanoma, with UACC-62 melanoma, with MOLT-4 leukemia and in the assay on SNB-75 CNS was > 100 µM each time. In addition, the TGI in the assay on SF-539 CNS, with HCC-2998 colon and in the assay on HL-60(TB) leukemia was > 100 µM in each case.

Consider `CCOc1cc(C=O)ccc1O`, for which the TGI in the assay on K-562 leukemia, in the assay with A549 NSCLC, with MALME-3M melanoma, in the assay with MOLT-4 leukemia, with NCI-H522 lung and in the assay with SNB-75 CNS was > 100 µM each time. For the same compound, the TGI with SF-539 CNS, with HCC-2998 colon and with HL-60(TB) leukemia was > 100 µM each time.

On to `NC(CO)c1ccccc1` (stereo not given), for which the TGI in the assay on A549 NSCLC, in the assay on MALME-3M melanoma, with UACC-62 melanoma, in the assay on MOLT-4 leukemia, with NCI-H522 lung and in the assay with SNB-75 CNS was > 100 µM each time. Also, the TGI in the assay with SF-539 CNS, in the assay on HCC-2998 colon and in the assay with HL-60(TB) leukemia was > 100 µM throughout.

On to `COc1ccc(S(=O)(=O)Nc2ccc(-c3csc(N4C(=O)/C(=C/C=C\c5ccccc5)N=C4c4ccccc4)n3)cc2)cc1Cl`, for which the TGI in the assay with K-562 leukemia is > 100 µM; in the assay on A549 NSCLC, > 100 µM; with MALME-3M melanoma, 63.1 µM; in the assay on UACC-62 melanoma, 49.9 µM; in the assay with MOLT-4 leukemia, > 100 µM; in the assay with NCI-H522 lung, 47.3 µM. The TGI in the assay on SNB-75 CNS was > 100 µM; in the assay with SF-539 CNS it was > 100 µM; in the assay with HL-60(TB) leukemia, 59.9 µM.

Regarding `COc1cc2cc3c4c(cc(OC)c(OC)c4c2cc1OC)CCN3C(=O)OCCBr`, the TGI in the assay on A549 NSCLC, in the assay with MALME-3M melanoma, with UACC-62 melanoma, in the assay with MOLT-4 leukemia, in the assay on NCI-H522 lung and in the assay on SNB-75 CNS was > 100 µM throughout. The TGI in the assay with SF-539 CNS, with HCC-2998 colon and in the assay with HL-60(TB) leukemia was > 100 µM in each case.

With `C=C1c2nc3ccccc3n2C=C(c2ccccc2)N1c1ccc(OC)cc1`, the TGI with K-562 leukemia is > 100 µM; in the assay with A549 NSCLC it was > 100 µM; in the assay on MALME-3M melanoma, 44.8 µM; in the assay on UACC-62 melanoma it was 62.2 µM; in the assay with MOLT-4 leukemia, > 100 µM; in the assay with NCI-H522 lung it was 16.1 µM. For the same compound, the TGI is 21.2 µM in the assay with SNB-75 CNS, 26.9 µM with SF-539 CNS and > 100 µM with HL-60(TB) leukemia.
